{
  "source": "patent US6429291B1",
  "about": "“Hyaluronan receptor protein” (priority 1994, dated 2002)",
  "key": {"C3 cells [1]": {"system": "C3 cells", "assay": "Tumorigenicity of treated C3 cells injected subcutaneously", "type": "in vivo, syngeneic C3H/HeN mice", "method": "(§1) C3 cells were serum starved, then cultured in presence of serum and GST or GST-HM for 48-hours and released from the substratum in Hanks. For assessing the tumorigenicity of the treated cells, 3×10^5 viable cells were injected subcutaneously into the right hind leg of syngeneic C3H/HeN Mice. The mice were maintained for 6-8 weeks after which tumors were removed, weighed and pieces processed for histology using conventional paraffin embedding techniques. For experimental metastasis assays, 4×10^3 treated cells were injected into the tail vein of syngeneic C3H/HeN mice. The mice were maintained for 16-18 days, euthanased and their lungs were stained by Boulin solution (picric acid, formaldehyde and acetic acid [15:5.:1]), removed and metastatic foci were counted under dissecting microscope."}, "C3 cells [2]": {"system": "C3 cells", "assay": "Cell cycle analysis by flow cytometry", "type": "cell-based, murine", "settings": "serum starved, then serum stimulated; 5 μg/ml GST-RHAMM", "method": "For cell cycle analysis, cells of the ras-transformed fibroblast cell line C3 were harvested and fixed with 70% ethanol. The fixed cells were denatured by 2N HCl containing 0.5% Triton X-100 at RT for 30 min and then neutralized by treatment with 0.1 M Na2B4O7, pH 8.5. Total DNA content was detected by propidium iodide staining. The stained cells were analyzed by flow cytometry using a Coulter Electronics Inc. EPICS 753 cell sorter and PARA1 cell cycle analysis software."}, "C3 fibroblasts": {"system": "C3 fibroblasts", "assay": "Cell locomotion assay, timelapse image analysis of C3 fibroblasts", "type": "cell-based, murine", "method": "For motility experiments, 10^5 cells were subcultured into 25 cm^2 tissue culture flasks (Corning), and maintained for 12 h as above. The medium was then aspirated, cells were rinsed with Hanks Balanced Salt Solution (HBSS) (Gibco) and fresh, serum-free α-MEM containing 4.0 μg/ml transferrin (Gibco) and 2.0 μg/ml insulin (Sigma) (defined medium) was added to the flasks.\nCell locomotion was recorded using a computerized timelapse analysis system (Image 1, Universal Imaging Corporation, Westchester, Pa.) that measures nuclear displacement. During the filming period, cells were maintained at 37° C. in defined-media at physiological pH.\nA 10 amino acid peptide corresponding to one of the HA binding domains of RHAMM, peptide^aa423-432 (Yang et al., 1993), was synthesised and added at various concentrations (0,0.1, 1.0, 5.0, 10.0 and 50.0 ng/ml) to 70% confluent C3 fibroblasts. Cell locomotion was monitored by image analysis for 2 h from the addition of the peptide. A scrambled peptide was used as control.\nRHAMM-GST fusion protein prepared and purified as described in (b) above was added at concentrations of 1 pg/ml, 1 ng/ml, 1 μg/ml and 1 mg/ml to 70% confluent C3 cultures and cell locomotion was monitored by image analysis for 2 h from protein addition as described in Example 5.\nFor each experiment, 30 cells were tracked every 10 min for a 1 hr period.\nRHAMM-GST fusion protein, as described in (d) above, and deleted/mutated RHAMM-GST fusion protein, as described in (h) above were added at 5 ng/ml to subconfluent cultures of C3 cells and cell locomotion was monitored by image analysis for 2 h from protein addition as described in Example 5."}, "C3 cells [3]": {"system": "C3 cells", "assay": "Experimental metastasis assay of treated C3 cells (tail vein)", "type": "in vivo, syngeneic C3H/HeN mice", "method": "as §1, with “For experimental metastasis assays, 4×10^3 treated cells were injected into the tail vein of syngeneic C3H/HeN mice.” left out"}, "C3 cells [4]": {"system": "C3 cells", "assay": "Growth analysis (cell density assay)", "type": "cell-based, murine", "method": "Cell density assay was carried out by seeding 5×10^4 cells in 60 mm dishes. Cells were cultured in DMEM supplemented with 10% FCS. At each point, cells were harvested by trypsinization and cell concentrations were determined by counting cells by trypan blue exclusion method."}, "[5]": {"assay": "HA binding transblot assay with biotinylated HA", "method": "For the HA-binding assay, cell lysates were separated on SDS-PAGE, transblotted onto nitrocellulose membranes, then blots were incubated with biotinylated HA instead of primary antibody (Yang et al., 1993). Streptavidin-peroxidase conjugate (Sigma) was used as a second antibody, and blots were processed as above."}, "p34^cdc2": {"system": "p34^cdc2", "assay": "Western blot of p34^cdc2 protein expression", "type": "cell-based, murine", "method": "For Western blot analysis, C3 cells in 100 mm dishes were washed 2× in PBS and then lysed in 0.25 ml ice cold buffer containing 50 mM β-glycerophosphate (pH 7.3), 1% Nonidet p-40, 10 mM NaF, 1% aprotinin and 1 mM Sodium Vanadate. The lysates were centrifused at 30,000 g for 20 min at 4° C. Protein concentration was determined by Biorad protein assay kit. Proteins were resolved on 10% SDS-polyacrylamide gels and transferred to nitrocellulose membranes in a Tris-Cl buffer containing 25 mM Tris, 192 mM Glycine and 20% (v/v) methanol, pH 8.3 at 100V for 1 hour at 4° C. Filters were incubated with antibody to p34^cdc2 (1:5000 dilution of polyclonal rabbits antiserum raised against the C-terminal peptide (LDNQIKKM) (SEQ ID NO:58) of Human […] protein) and developed with horseradish peroxidase-conjugated goat antibody to rabbit immunoglobulin G (sigma). Blotting was visualized by enhanced chomilumineacence Western blotting system (Amersham) following manufacturer's instruction."}, "cdc2 mRNA": {"system": "cdc2 mRNA", "assay": "cdc2 mRNA Northern blot, nuclear run-on and mRNA stability", "type": "cell-based, murine", "settings": "actinomycin D 20 μg/ml for stability", "method": "Total cellular RNA was extracted by a rapid RNA isolation method using Trizol reagent (GIBCO) as per manufacturer's instructions. For half-life measurements, transcription was inhibited by addition of 20 ug/ml actinomycin D. RNA was isolated at different times and analyzed for cdc2 gene expression. 20 ug of total cellular RNA was electrophoresed through 1% formamide-agarose gels and blotted onto Nytran membranes. The blots were prehybridized and probed with random primer 32p-labelled murine cdc2 cDNA (Paul Nurse). Loading of RNA was determined by probing with glyceraldehyde-3-phosphate dehyrogenase (GAPDH) cDNA. Autoradiography was done by Phosphoimager SF (Molecular Dynamics) using storage phosphor imaging.\nNuclear run-on assay was performed using 32P-labelled RNA to probe filter-bound cdc2 and GAPDH single strand cDNA inserts. Quantification of transcription was determined by scanning phosphor images using Multiquant software program (Molecular Dynamics)."}, "[6]": {"settings": "treated cells that did form tumours"}},
  "data": [
    {"substance": "RHAMM-GST fusion protein: RHAMM II cDNA cloned into pGEX-2T and expressed as soluble glutathione S-transferase-RHAMM fusion protein", "values": [
      {"measurement": "Tumorigenicity, Frequency", "setting": "C3 cells [1]; C3 cells treated 48 hours before s.c. injection of 3 × 10^5 cells", "value": "2/4"},
      {"measurement": "Tumorigenicity, Latency", "setting": "C3 cells [1]; s.c. injection of 3 × 10^5 treated cells", "value": 22, "unit": "days"},
      {"measurement": "Tumorigenicity, Tumor size Day 25", "setting": "C3 cells [1]; s.c. injection of 3 × 10^5 treated cells, Day 25", "value": "90 ± 0.7", "unit": "mm²"},
      {"measurement": "latency compared to controls", "setting": "C3 cells [1]; [6]", "value": "increased"},
      {"measurement": "ultimate tumour size compared to controls", "setting": "C3 cells [1]; [6]", "value": "reduced"},
      {"measurement": "reduction of incidence of tumours", "setting": "C3 cells [1]; treatment of C3 cells prior to inoculation", "value": 50, "unit": "%"},
      {"measurement": "effect on cell cycle", "setting": "C3 cells [2]", "value": "arrested and accumulated in G2/M phase"},
      {"measurement": "concentration at which cell locomotion was significantly inhibited", "setting": "C3 fibroblasts; 70% confluent C3, 2 h", "value": "≥ 1", "unit": "ng/mL"},
      {"measurement": "effect on cell locomotion", "setting": "C3 fibroblasts; C3 fibroblasts, result in words", "value": "effective inhibitor of cell motility"},
      {"measurement": "reduction of locomotion", "setting": "C3 fibroblasts; at 1 ng/ml, p<0.0001", "value": 40, "unit": "%"},
      {"measurement": "reduction in locomotion", "setting": "C3 fibroblasts; concentrations as low as 1 ng/ml", "value": 3.5, "unit": "fold"},
      {"measurement": "Expt. Metastases, Frequency", "setting": "C3 cells [3]; i.v. injection of 4 × 10^5 treated cells", "value": "3/4"},
      {"measurement": "Expt. Metastases, No.", "setting": "C3 cells [3]; i.v. injection of 4 × 10^5 treated cells, lung foci", "value": "<10"},
      {"measurement": "metastatic capability of C3 cells", "setting": "C3 cells [3]; pre-treatment of cells", "value": "greatly reduced the metastatic capability"},
      {"measurement": "effect on cell proliferation", "setting": "C3 cells [4]; 5 μg/ml GST-RHAMM", "value": "decrease in cell proliferation"},
      {"measurement": "fate of treated cells", "setting": "C3 cells [4]; RHAMM-treated C3 cells", "value": "proceeded to cell death"},
      {"measurement": "binding to biotinylated HA", "setting": "[5]", "value": "showed binding to biotinylated HA"},
      {"measurement": "p34^cdc2 expression", "setting": "p34^cdc2; 10 μg/ml", "value": "greatly reduced"},
      {"measurement": "effect on p34^cdc2 expression", "setting": "p34^cdc2; range of concentrations", "value": "dose dependent inhibition"},
      {"measurement": "effect on cdc2 mRNA", "setting": "cdc2 mRNA", "value": "degradation of cdc2 mRNA without alteration of transcription"}
    ]}
  ]
}
